Source: paper PMC11274943, “Discovery of Benzisothiazolone Derivatives as Bifunctional Inhibitors of HIV-1 Reverse Transcriptase DNA Polymerase and Ribonuclease H Activities” (Biomolecules, 2024)

Tests used:
Assay type in all cases: biochemical
[1] = molecular target: T1, K101E HIV-1 RT RNase H activity (Human immunodeficiency virus type 1 group M subtype B, UniProt P04585, K688E); assay: FRET-based RT RNase H cleavage assay, K101E RT
T1 construct: made in house
Description: (§1) WT (wild-type) RT, and RTs harboring the NNRTI-resistant mutations K101E, K103N, Y181C, Y188C, G190A and P236L, were overexpressed and purified to homogeneity as described previously. The RT concentration was determined spectrophotometrically at 280 nm using an absorbance coefficient of 260,450 M^−1·cm^−1. The 7-hydroxy tropolone derivative 19,616 (2,7-dihydroxy 2,4,6-cyclo-heptatrien-1-one) was purchased from Molecular Diversity Preservation International (Basel, Switzerland). Nevirapine was purchased from Selleckchem (Houston, TX, USA). The benzisothiazolone derivatives were procured from MolPort (New York, NY, USA) or Enamine (Kyiv, Ukraine). The DNA and RNA oligonucleotides were synthesized and purified by Integrated DNA Technologies (Coralville, IA, USA). All other reagents were of the highest quality available and were used without further purification.
(§2) The following RNA/DNA T/P substrate was used in the present study: an 18-nucleotide RNA template (RNA-18T: 5′-[…]-3′) was annealed to an 18-nucleotide primer (DNA-18T: 5′-[…]-3′), as described previously. Fluorescein and IowaBlack FQTM were covalently attached to the 3′- and 5′-ter-mini of the RNA and DNA oligonucleotides, respectively.
(§3) The FRET-based RNase H cleavage assays were carried out as described previously. Fluorescence was measured with a SpectraMax M2 microplate spectrofluorometer (Molecular Devices, San Jose, CA, USA) using an excitation wavelength of 490 nm and an emission wavelength of 528 nm. Data were analyzed using SoftMax Pro software, version 4.7.1 (Molecular Devices, San Jose, CA, USA).

[2] = tested on: K101E HIV-1 RT RNase H activity; assay: FRET-based RT RNase H cleavage assay, K101E RT; conditions: K101E RT; fold resistance IC50 mutant/IC50 WT
Description: as §1, §2, §3

[3] = tested on: K103N HIV-1 RT DNA-dependent DNA polymerase activity; assay: biochemical; conditions: K103N RT; fold resistance IC50 mutant/IC50 WT
Description: as §1, with “Nevirapine was purchased from Selleckchem (Houston, TX, USA).” left out
(§4) DDDP assays were also performed using a QuantiFluor ONE based spectrophotometric assay to detect double-stranded DNA synthesized by recombinant HIV-1 RT [14]. The reaction contained 40 nM of a template/primer comprising a 200 nt DNA template (5′-[…] […]-[…]-[…] […] […]-3′) annealed to an 18-nucleotide DNA primer (5′-[…]-3′), and a mix of 50 mM Tris-HCl pH 7.8, 50 mM NaCl, 10 mM MgCl2 and 50 µM dNTP. The reactions were stopped after 45 min by adding the detection reagent containing 1 × Quant-Fluor One (Promega) and 12.5 mM ethylenediaminetet-raacetic acid; the samples were transferred to a 96-well black plate, and fluorescence was measured at excitation/emission (490/535 nm).

[4] = molecular target: T2, G190A HIV-1 RT DNA-dependent DNA polymerase activity (Human immunodeficiency virus type 1 group M subtype B, UniProt P04585, G777A); assay: biochemical
T2 construct: made in house
Description: as §1, with “Nevirapine was purchased from Selleckchem (Houston, TX, USA).” left out
as §4

[5] = molecular target: T3, Y181C HIV-1 RT DNA-dependent DNA polymerase activity (Human immunodeficiency virus type 1 group M subtype B, UniProt P04585, Y768C); assay: biochemical
T3 construct: made in house
Description: as §1, with “Nevirapine was purchased from Selleckchem (Houston, TX, USA).” left out
as §4

[6] = molecular target: T4, K103N HIV-1 RT DNA-dependent DNA polymerase activity (Human immunodeficiency virus type 1 group M subtype B, UniProt P04585, K690N); assay: biochemical
T4 construct: made in house
Description: as §1, with “Nevirapine was purchased from Selleckchem (Houston, TX, USA).” left out
as §4

[7] = tested on: Y181C HIV-1 RT DNA-dependent DNA polymerase activity; assay: biochemical; conditions: Y181C RT; fold resistance IC50 mutant/IC50 WT
Description: as §1, with “Nevirapine was purchased from Selleckchem (Houston, TX, USA).” left out
as §4

[8] = molecular target: T5, Y188C HIV-1 RT DNA-dependent DNA polymerase activity (Human immunodeficiency virus type 1 group M subtype B, UniProt P04585, Y775C); assay: biochemical
T5 construct: made in house
Description: as §1, with “Nevirapine was purchased from Selleckchem (Houston, TX, USA).” left out
as §4

[9] = tested on: K101E HIV-1 RT DNA-dependent DNA polymerase activity; assay: biochemical; conditions: K101E RT; fold resistance IC50 mutant/IC50 WT
Description: as §1, with “Nevirapine was purchased from Selleckchem (Houston, TX, USA).” left out
as §4

[10] = molecular target: T6, P236L HIV-1 RT DNA-dependent DNA polymerase activity (Human immunodeficiency virus type 1 group M subtype B, UniProt P04585, P823L); assay: biochemical
T6 construct: made in house
Description: as §1, with “Nevirapine was purchased from Selleckchem (Houston, TX, USA).” left out
as §4

[11] = molecular target: T7, K101E HIV-1 RT DNA-dependent DNA polymerase activity (Human immunodeficiency virus type 1 group M subtype B, UniProt P04585, K688E); assay: biochemical
T7 construct: made in house
Description: as §1, with “Nevirapine was purchased from Selleckchem (Houston, TX, USA).” left out
as §4

[12] = tested on: Y188C HIV-1 RT DNA-dependent DNA polymerase activity; assay: biochemical; conditions: Y188C RT; fold resistance IC50 mutant/IC50 WT
Description: as §1, with “Nevirapine was purchased from Selleckchem (Houston, TX, USA).” left out
as §4

[13] = tested on: P236L HIV-1 RT DNA-dependent DNA polymerase activity; assay: biochemical; conditions: P236L RT; fold resistance IC50 mutant/IC50 WT
Description: as §1, with “Nevirapine was purchased from Selleckchem (Houston, TX, USA).” left out
as §4

[14] = molecular target: T8, WT HIV-1 RT DNA-dependent DNA polymerase activity (Human immunodeficiency virus type 1 group M subtype B, UniProt P04585); assay: biochemical
T8 construct: made in house
Description: as §1, with “Nevirapine was purchased from Selleckchem (Houston, TX, USA).” left out
as §4

[15] = molecular target: T9, Y181C HIV-1 RT RNase H activity (Human immunodeficiency virus type 1 group M subtype B, UniProt P04585, Y768C); assay: FRET-based RT RNase H cleavage assay, Y181C RT
T9 construct: made in house
Description: as §1, §2, §3

[16] = tested on: G190A HIV-1 RT RNase H activity; assay: FRET-based RT RNase H cleavage assay, G190A RT; conditions: G190A RT; fold resistance IC50 mutant/IC50 WT
Description: as §1, §2, §3

[17] = molecular target: T10, G190A HIV-1 RT RNase H activity (Human immunodeficiency virus type 1 group M subtype B, UniProt P04585, G777A); assay: FRET-based RT RNase H cleavage assay, G190A RT
T10 construct: made in house
Description: as §1, §2, §3

SMILES	IC50 [1] [nM]	Inhibition of RT RNase H Activity Fold-R [2]	Inhibition of RT DNA polymerase activity Fold-R [3]	IC50 [4] [nM]	IC50 [5] [nM]	IC50 [6] [nM]	Inhibition of RT DNA polymerase activity Fold-R [7]	IC50 [8] [nM]	Inhibition of RT DNA polymerase activity Fold-R [9]	IC50 [10] [nM]	IC50 [11] [nM]	Inhibition of RT DNA polymerase activity Fold-R [12]	Inhibition of RT DNA polymerase activity Fold-R [13]	IC50 [14] [nM]	IC50 [15] [nM]	Inhibition of RT RNase H Activity Fold-R [16]	IC50 [17] [nM]
Cc1ccc(-n2sc3ccccc3c2=O)cc1S(=O)(=O)N1CCCCC1 [Compound 1, 2-(4-methyl-3-(piperidin-1-ylsulfonyl)phenyl)benzo[d]isothiazol-3(2H)-one]	250 ± 60	1.6	0.6	1600 ± 880	610 ± 60	3660 ± 1840	0.1	140 ± 10	1.2	2220 ± 180	7330 ± 7050	0.02	0.4	5970 ± 3100	470 ± 50	1.3	210 ± 20
CCOC(=O)Cc1csc(-n2sc3ccccc3c2=O)n1 [Compound 2, ethyl 2-(2-(3-oxobenzo[d]isothiazol-2(3H)-yl)thiazol-4-yl)acetate]	280 ± 20	2.2	1.2	1930 ± 490	710 ± 100	3280 ± 1530	0.3	530 ± 80	1.8	5130 ± 1680	4880 ± 1560	0.2	1.9	2640 ± 1850	550 ± 20	1.8	230 ± 20
CCN(CC)S(=O)(=O)c1cccc(-n2sc3ccccc3c2=O)c1 [Compound 4, N,N-diethyl-3-(3-oxobenzo[d]isothiazol-2(3H)-yl)benzenesulfonamide]	90 ± 30	0.3	1.9	1700 ± 1000	500 ± 200	2100 ± 700	0.45	300 ± 100	1.6	1600 ± 900	1800 ± 700	0.3	1.5	1100 ± 300	270 ± 30	1.2	310 ± 40
